{"source": "patent US8143212B2", "about": "(Vicuron Pharmaceuticals Inc., priority 2002, dated 2012)", "key": {"B subtilis": {"tested_on": "B subtilis", "experiment": "MIC, microbiological activity (Table 3)", "type": "cell-based", "details": "L 102 B subtilis ATCC"}, "E coli": {"tested_on": "E coli", "experiment": "MIC, microbiological activity (Table 3)", "type": "cell-based", "details": "G 16440 E coli iperperm"}, "S pneumoniae": {"tested_on": "S pneumoniae", "experiment": "MIC, microbiological activity (Table 3)", "type": "cell-based", "details": "L 44 S pneumoniae UC41"}, "P vulgaris": {"tested_on": "P vulgaris", "experiment": "MIC, microbiological activity (Table 3)", "type": "cell-based", "details": "L 79 P vulgaris"}, "P aeruginosas": {"tested_on": "P aeruginosas", "experiment": "MIC, microbiological activity (Table 3)", "type": "cell-based", "details": "L 4 P aeruginosas ATCC10145"}, "Staph. aureus": {"tested_on": "Staph. aureus", "experiment": "ED50 against Staph. aureus murine septicaemias (Table 2)", "type": "in vivo", "details": "treatment once within 10 min from infection by sc route"}, "S haemolyticus": {"tested_on": "S haemolyticus", "experiment": "MIC, microbiological activity (Table 3)", "type": "cell-based", "details": "L 602 S haemolyticus clin. isolate"}, "C albicans": {"tested_on": "C albicans", "experiment": "MIC, microbiological activity (Table 3)", "type": "cell-based", "details": "L 145 C albicans SKF2270"}, "S aureus": {"tested_on": "S aureus", "experiment": "MIC, microbiological activity (Tables 2, 3)", "type": "cell-based"}, "S epidermidis": {"tested_on": "S epidermidis", "experiment": "MIC, microbiological activity (Table 3)", "type": "cell-based", "details": "L 147 S epidermidis"}, "E faecalis": {"tested_on": "E faecalis", "experiment": "MIC, microbiological activity (Table 3)", "type": "cell-based"}, "S pyogenes": {"tested_on": "S pyogenes", "experiment": "MIC, microbiological activity (Table 3)", "type": "cell-based", "details": "L 49 S pyogenes C203"}, "E. faecium Van-A": {"tested_on": "E. faecium Van-A", "experiment": "MIC, microbiological activity (Table 3)", "type": "cell-based", "details": "L 1666 E. faecium Van-A"}, "[1]": {"tested_on": "Escherichia coli, Proteus vulgaris, Pseudomonas aeruginosas", "experiment": "MIC by broth microdilution (NCCLS) of IsoB0 and reference compounds (Table 44), non-gram-positive bacterial strains", "type": "cell-based", "description": "(§1) MICs were determined by the broth microdilution methodology following the standard NCCLS procedure, with or without 30% bovine serum, using bacterial inocula of approximately 5×10^5 CFU/mL. Tests were read after 20-24 h incubation at 35° C."}, "[2]": {"tested_on": "Candida albicans SKF 2270", "experiment": "MIC by broth microdilution (NCCLS) (Tables 42, 44)", "type": "cell-based"}, "[3]": {"tested_on": "panel of gram-positive bacteria", "experiment": "MIC by broth microdilution (NCCLS) of IsoB0 and reference compounds (Table 44)", "type": "cell-based", "description": "Müller Hinton broth (Difco Laboratories, Detroit, Mich., USA) adjusted with CaCl2 and MgCl2 to a final concentrations of 20 mg/L and 10 mg/L respectively.\nThe microorganisms used are reference standard strains from the American Type Culture Collection (ATCC, Rockville, USA), Smith Kline and French Laboratories (SKF) and the Upjohn Company (UC, Kalamazoo, Mich., USA).\nas §1"}, "gram-negative bacteria [4]": {"tested_on": "gram-negative bacteria", "details": "E. coli ATCC25922 ref. strain; NCCLS M100 S-12; cited from earlier work"}, "gram positive bacteria": {"tested_on": "gram positive bacteria", "experiment": "MIC by broth microdilution (NCCLS), with or without 30% bovine serum (Table 42)", "type": "cell-based", "description": "(§2) Before dissolution, each sample was analyzed by HPLC and quantified.\n(§3) The microorganisms used were reference strains obtained from the American Type Culture Collection (ATCC) (Rockville, Md.), SmithKline and French Laboratories (SKF), and the Upjohn Company (UC) (Kalamazoo, Mich.).\n(§4) MICs were determined by the broth microdilution methodology following the standard NCCLS procedure (NCCLS Document M7-A6, Vol. 23, No. 2, “Methods for dilution antimicrobial susceptibility tests for bacteria that grow aerobically.” Approved Guideline. January 2003, which can be herein incorporated by reference in its entirety), with or without 30% adult bovine serum (BS) (PAA Laboratories GMBH, Haidmannweg Pasching Austria), using bacterial innocula at approximately 5×10^5 CFU/ml. The media employed included cation-adjusted Müller Hinton broth (Difco Laboratories, Detroit, Mich.) that was used that was adjusted with CaCl2 and MgCl2 to a final concentration of 20 mg/L and 10 mg/L, respectively. Tests were read following 20-24 hours of incubation at 35° C."}, "gram-negative bacteria [5]": {"tested_on": "gram-negative bacteria", "experiment": "MIC by broth microdilution (NCCLS) (Table 42)", "type": "cell-based", "description": "as §2, §3, §4"}, "[6]": {"details": "Pseudomonas aeruginosas ATCC 10145"}, "[7]": {"details": "E. faecalis ATCC29212 ref. strain"}, "[8]": {"details": "Enterococcus faecalis ATCC 7080"}, "[9]": {"details": "S. aureus ATCC 29213 ref. strain"}, "[10]": {"details": "Staphylococcus aureus Smith ATCC 19636"}}, "note": "Several values for one entry are separate records, joined by “and”; a condition that tells them apart may be missing. Identical values can stand only once.", "data": [{"compound": "CN[C@H]1C(=O)N[C@@H]2Cc3ccc(cc3)Oc3cc4cc(c3O)Oc3ccc(cc3Cl)[C@@H](O)[C@@H]3NC(=O)[C@H](NC(=O)[C@@H]4NC(=O)[C@@H](NC2=O)c2cc(cc(O)c2Cl)Oc2cc1ccc2O)c1ccc(O)c(c1)-c1c(O[C@H]2O[C@H](CO)[C@@H](O)[C@H](O)[C@@H]2O)cc(O)cc1[C@@H](C(=O)NCCCN(C)C)NC3=O", "note": "[MAG]", "values": [{"measurement": "MIC", "setting": "B subtilis", "result": "0.13-0.13 μg/ml"}, {"measurement": "MIC", "setting": "E coli", "result": "8 µg/mL and 16 µg/mL"}, {"measurement": "MIC", "setting": "S pneumoniae", "result": "1 µg/mL and 0.5 µg/mL"}, {"measurement": "MIC", "setting": "P vulgaris", "result": ">32->32->32 μg/ml"}, {"measurement": "MIC", "setting": "P aeruginosas", "result": ">32->32->32 μg/ml"}, {"measurement": "ED50", "setting": "Staph. aureus; MRSA Staph. aureus 3817", "result": 1.6, "unit": "mg/kg"}, {"measurement": "ED50", "setting": "Staph. aureus; MSSA Staph. aureus Smith 819", "result": 0.3, "unit": "mg/kg"}, {"measurement": "MIC", "setting": "S haemolyticus", "result": ">32-32 μg/ml"}, {"measurement": "MIC", "setting": "C albicans", "result": ">32->32->32 μg/ml"}, {"measurement": "MIC", "setting": "S aureus; 3797 S aureus clin. Isolate GISA", "result": "0.5-0.5 μg/ml"}, {"measurement": "MIC", "setting": "S aureus; 3817 S aureus clin. Isolate", "result": 0.5, "unit": "µg/mL"}, {"measurement": "MIC", "setting": "S aureus; L 613 S aureus clin. isolate", "result": "1 µg/mL and 0.5 µg/mL"}, {"measurement": "MIC", "setting": "S aureus; L 819 S aureus Smith", "result": "0.5 µg/mL and 0.25 µg/mL"}, {"measurement": "MIC", "setting": "S aureus; L 819 S aureus Smith 50% serum", "result": "1-1-1 μg/ml"}, {"measurement": "MIC", "setting": "S aureus; MRSA Staph. aureus 3817", "result": 0.5, "unit": "µg/mL"}, {"measurement": "MIC", "setting": "S aureus; MSSA Staph. aureus Smith 819", "result": 0.5, "unit": "µg/mL"}, {"measurement": "MIC", "setting": "S epidermidis", "result": "0.25 µg/mL and 0.13 µg/mL"}, {"measurement": "MIC", "setting": "E faecalis; L 149 E faecalis", "result": "0.25 µg/mL and 0.5 µg/mL"}, {"measurement": "MIC", "setting": "E faecalis; L 562 E faecalis clin. isolate", "result": "32->32->32 μg/ml"}, {"measurement": "MIC", "setting": "S pyogenes", "result": "0.5 µg/mL and 0.25 µg/mL"}, {"measurement": "MIC", "setting": "E. faecium Van-A", "result": ">32->32->32 μg/ml"}]}, {"compound": "Gentamycin [reference compound]", "values": [{"measurement": "MIC", "setting": "[1]; E. coli ATCC25922 ref. strain", "result": 1, "unit": "µg/mL"}, {"measurement": "MIC", "setting": "[1]; Escherichia coli SKF 12140", "result": 2, "unit": "µg/mL"}, {"measurement": "MIC", "setting": "[1]; Proteus vulgaris ATCC 881", "result": 2, "unit": "µg/mL"}, {"measurement": "MIC", "setting": "[1]; [6]", "result": 1, "unit": "µg/mL"}, {"measurement": "MIC", "setting": "[2]; Candida albicans SKF 2270 (Table 42)", "result": ">128", "unit": "µg/mL"}, {"measurement": "MIC", "setting": "[2]; Candida albicans SKF2270 (Table 44)", "result": ">128", "unit": "µg/mL"}, {"measurement": "MIC", "setting": "[3]; Bacillus subtilis ATCC 6633", "result": 0.25, "unit": "µg/mL"}, {"measurement": "MIC", "setting": "[3]; [7]", "result": 32, "unit": "µg/mL"}, {"measurement": "MIC", "setting": "[3]; [8]", "result": 8, "unit": "µg/mL"}, {"measurement": "MIC", "setting": "[3]; [9]", "result": 8, "unit": "µg/mL"}, {"measurement": "MIC", "setting": "[3]; S. aureus Smith + 30% BS", "result": "≦0.125 mg/L"}, {"measurement": "MIC", "setting": "[3]; S. epidermidis ATCC 12228", "result": "≦0.125 mg/L"}, {"measurement": "MIC", "setting": "[3]; S. pneumoniae Felton UC41", "result": 8, "unit": "µg/mL"}, {"measurement": "MIC", "setting": "[3]; [10]", "result": 0.5, "unit": "µg/mL"}, {"measurement": "MIC", "setting": "[3]; Streptococcus pyogenes SKF13400", "result": 4, "unit": "µg/mL"}, {"measurement": "Quality control range of MICs for reference strains", "setting": "gram-negative bacteria [4]", "result": "^3GE 0.25-1 mg/L"}, {"measurement": "MIC", "setting": "gram positive bacteria; Bacillus subtilis ATCC 6633", "result": 0.25, "unit": "µg/mL"}, {"measurement": "MIC", "setting": "gram positive bacteria; [7]", "result": 32, "unit": "µg/mL"}, {"measurement": "MIC", "setting": "gram positive bacteria; [8]", "result": 8, "unit": "µg/mL"}, {"measurement": "MIC", "setting": "gram positive bacteria; [9]", "result": 8, "unit": "µg/mL"}, {"measurement": "MIC", "setting": "gram positive bacteria; S. aureus Smith + 30% BS", "result": "≦0.125 mg/L"}, {"measurement": "MIC", "setting": "gram positive bacteria; S. epidermidis ATCC 12228", "result": "≦0.125 mg/L"}, {"measurement": "MIC", "setting": "gram positive bacteria; S. pneumoniae Felton UC41", "result": 8, "unit": "µg/mL"}, {"measurement": "MIC", "setting": "gram positive bacteria; [10]", "result": 0.5, "unit": "µg/mL"}, {"measurement": "MIC", "setting": "gram positive bacteria; Streptococcus pyrogenes SKF 13400", "result": 4, "unit": "µg/mL"}, {"measurement": "MIC", "setting": "gram-negative bacteria [5]; E. coli ATCC25922 ref. strain", "result": 1, "unit": "µg/mL"}, {"measurement": "MIC", "setting": "gram-negative bacteria [5]; Escherichia coli SKF 12140", "result": 2, "unit": "µg/mL"}, {"measurement": "MIC", "setting": "gram-negative bacteria [5]; Proteus vulgaris ATCC 881", "result": 2, "unit": "µg/mL"}, {"measurement": "MIC", "setting": "gram-negative bacteria [5]; [6]", "result": 1, "unit": "µg/mL"}]}]}
